Assay results as given in the supplement of paper PMC6965134.
± gives the standard deviation of the averaged measurements.

Experiment: TIMS collisional cross section (CCS, N2) of the lipid ion; higher = larger ion cross section
Settings: ionization mode: positive, one isomer drawn
Experimental: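 Lipid extracts of human plasma (NIST SRM 1950), mouse liver and HeLa cells were separated by nanoflow C18 LC (30 min gradient, 60 °C) and analysed by TIMS-PASEF on a timsTOF Pro in positive ion mode. Ion mobility was calibrated with the Agilent tuning mix and converted to collisional cross sections (Mason–Schamp) in N2 drift gas. Lipids were identified by MS/MS (SimLipid) and manual curation. SMILES are LIPID MAPS representative structures for the annotated lipid.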

Row | TIMS collisional cross section (sample type: HeLa) [Å²] | TIMS collisional cross section (sample type: plasma) [Å²] | TIMS collisional cross section (sample type: Liver) [Å²] | SMILES
1 | 228.2 | 228.1 ± 0.42 |  | CCCCCCCCCCCCC/C=C/C=C/C(=O)OC[C@@H](O)COP(=O)([O-])OCC[N+](C)(C)C (ion (formula + adduct): [C26H50NO7P+H] 1+)
2 |  | 219.5 |  | CC(C)CCC[C@@H](C)[C@H]1CC[C@H]2C3=CC[C@H]4[C@](C)(C=O)[C@@H](O)CC[C@]4(C)[C@H]3CC[C@]12C (ion (formula + adduct): [C29H48O2+H] 1+)
3 | 203.63 ± 0.75 | 203.1 |  | CC(C)CCC[C@@H](C)[C@H]1CC[C@H]2[C@@H]3C(=O)C=C4C=CCC[C@]4(C)[C@H]3CC[C@]12C [3,5-cholestadien-7-one] (ion (formula + adduct): [C27H42O+H] 1+)
4 | 210.4 | 210.5 | 209.6 | [C@]12(CC=C3C[C@@H](O)CC[C@]3(C)[C@@]1([H])CC[C@]1(C)[C@@]([H])([C@@](C)([H])CC[C@@H]3O[C@@]3(C)C)CC[C@@]21[H])[H] [24,25-epoxy-cholesterol] (ion (formula + adduct): [C27H44O2+H] 1+)
5 |  | 207.8 |  | CC(C)C(=O)C[C@](C)(O)[C@H]1CC[C@H]2[C@@H]3C[C@H](O)[C@H]4C[C@@H](O)CC[C@]4(C)C3=CC[C@@]21C [24-northornasterol A] (ion (formula + adduct): [C26H42O4+H] 1+)
6 | 211.6 |  |  | C12CC[C@@]3([H])C(C)(C)[C@@H](O)CC[C@]3(C)C=1CC[C@]1(C)[C@@]([H])([C@@](C)([H])CC/C=C(\C)/C)CC[C@@]21C=O [32-oxolanosterol] (ion (formula + adduct): [C30H48O2+H] 1+)
7 | 274.3 |  | 274.9 | CCCCCCCCCCCCC/C=C/[C@@H](O)[C@H](CO)NC(=O)CCCCCCCCCCCCCCCCCCCCC [Cer d18:1_22:0@] (ion (formula + adduct): [C40H79NO3+H] 1+)
8 | 276.9 |  | 277.5 | CCCCCCCCCCCCC/C=C/[C@@H](O)[C@H](CO)NC(=O)CCCCCCCCCCCCCCCCCCCCCC [Cer d18:1_23:0@] (ion (formula + adduct): [C41H81NO3+H] 1+)
9 |  | 281.1 | 281.2 | CCCCCCCCCCCCC/C=C/[C@@H](O)[C@H](CO)NC(=O)CCCCCCCCCCCCCCCCCCCCCCC [Cer d18:1_24:0@] (ion (formula + adduct): [C42H83NO3+H] 1+)
10 | 278.2 | 280.9 ± 3.8 | 283 | CCCCCCCC/C=C\CCCCCCCCCCCCCC(=O)N[C@@H](CO)[C@H](O)/C=C/CCCCCCCCCCCCC [Cer d18:1_24:1@] (ion (formula + adduct): [C42H81NO3+H] 1+)
11 |  |  | 284.1 | CCCCCCCCCCCCC/C=C/[C@@H](O)[C@H](CO)NC(=O)CCCCCCCCCCCCCCCCCCCCCCCC [Cer d18:1_25:0@] (ion (formula + adduct): [C43H85NO3+H] 1+)
12 | 284.9 |  | 289.4 | CCCCCCCC/C=C\CCCCCCCCCCCCCCCC(=O)N[C@@H](CO)[C@H](O)/C=C/CCCCCCCCCCCCC [Cer d18:1_26:1@] (ion (formula + adduct): [C44H85NO3+H] 1+)
13 | 207.1 |  |  | CC(C)CCC[C@@H](C)[C@H]1CC[C@H]2[C@@H]3CC=C4C[C@@H](O)CC[C@]4(C)[C@H]3CC[C@]12C [Cholesterol] (ion (formula + adduct): [C27H46O+H] 1+)
14 |  |  | 231.3 | CC(C)(O)CCC(=O)[C@](C)(O)[C@H]1[C@H](O)C[C@@]2(C)[C@@H]3CC=C4[C@@H](C[C@@H](O)[C@@H](O)C4(C)C)[C@]3(C)C(=O)C[C@]12C [Cucurbitacin P] (ion (formula + adduct): [C30H48O7+H] 1+)
15 | 252.4 |  | 252.7 | CCCCCCCCCCCCCCCC(=O)O[C@@H](CO)COC(=O)CCCCCCCCCCCCC [DG 14:0_16:0_0:0] (ion (formula + adduct): [C33H64O5+NH4] 1+)
16 | 248.3 |  |  | CCCCCC/C=C\CCCCCCCC(=O)O[C@@H](CO)COC(=O)CCCCCCCCCCCCC [DG 14:0_16:1_0:0] (ion (formula + adduct): [C33H62O5+NH4] 1+)
17 |  | 255.9 |  | CCCCCCCC/C=C\CCCCCCCC(=O)O[C@@H](CO)COC(=O)CCCCCCCCCCCCC [DG 14:0_18:1_0:0] (ion (formula + adduct): [C35H66O5+NH4] 1+)
18 |  |  | 252 | CCCCC/C=C\C/C=C\CCCCCCCC(=O)O[C@@H](CO)COC(=O)CCCCCCCCCCCCC [DG 14:0_18:2_0:0] (ion (formula + adduct): [C35H64O5+NH4] 1+)

Row | TIMS collisional cross section (sample type: HeLa) [Å²] | TIMS collisional cross section (sample type: plasma) [Å²] | TIMS collisional cross section (sample type: Liver) [Å²] | SMILES
19 | 259 | 259 ± 0.42 | 258.8 | CCCCCCCCCCCCCCCC(=O)OCC(CO)OC(=O)CCCCCCCCCCCCCCC (configuration not stated) [DG 16:0_16:0_0:0] (ion (formula + adduct): [C35H68O5+NH4] 1+)
20 |  | 253.8 |  | CCCCCCCCCCCCCCCC(=O)OCC(CO)OC(=O)CCCCCCCCCCCCCCC (configuration not stated) [DG 16:0_16:0_0:0] (ion (formula + adduct): [C35H68O5+Na] 1+)
21 | 254.9 | 257 | 254.9 | CCCCCC/C=C\CCCCCCCC(=O)O[C@@H](CO)COC(=O)CCCCCCCCCCCCCCC [DG 16:0_16:1_0:0] (ion (formula + adduct): [C35H66O5+NH4] 1+)
22 | 262.1 ± 0.42 |  |  | CCCCCCCCCCCCCCCCC(=O)O[C@@H](CO)COC(=O)CCCCCCCCCCCCCCC [DG 16:0_17:0_0:0] (ion (formula + adduct): [C36H70O5+NH4] 1+)
23 |  |  | 259.8 | CCCCC/C=C\C/C=C\CCCCCCCC(=O)O[C@@H](CO)COC(=O)CCCCCCCCCCCCCCC [DG 16:0_18:2_0:0] (ion (formula + adduct): [C37H68O5+NH4] 1+)
24 | 257.3 |  | 257.1 | CC/C=C\C/C=C\C/C=C\CCCCCCCC(=O)O[C@@H](CO)COC(=O)CCCCCCCCCCCCCCC [DG 16:0_18:3_0:0] (ion (formula + adduct): [C37H66O5+NH4] 1+)
25 |  |  | 265.1 | CCCCC/C=C\C/C=C\C/C=C\CCCCCCC(=O)O[C@@H](CO)COC(=O)CCCCCCCCCCCCCCC [DG 16:0_20:3_0:0] (ion (formula + adduct): [C39H70O5+H] 1+)
26 | 264.8 |  | 264.9 | CCCCC/C=C\C/C=C\C/C=C\CCCCCCC(=O)O[C@@H](CO)COC(=O)CCCCCCCCCCCCCCC [DG 16:0_20:3_0:0] (ion (formula + adduct): [C39H70O5+NH4] 1+)
27 |  |  | 263.9 | CCCCC/C=C\C/C=C\C/C=C\C/C=C\CCCC(=O)O[C@@H](CO)COC(=O)CCCCCCCCCCCCCCC [DG 16:0_20:4_0:0] (ion (formula + adduct): [C39H68O5+H] 1+)
28 | 263.4 | 263.6 | 263.8 | CCCCC/C=C\C/C=C\C/C=C\C/C=C\CCCC(=O)O[C@@H](CO)COC(=O)CCCCCCCCCCCCCCC [DG 16:0_20:4_0:0] (ion (formula + adduct): [C39H68O5+NH4] 1+)
29 | 261.5 |  |  | CC/C=C\C/C=C\C/C=C\C/C=C\C/C=C\CCCC(=O)O[C@@H](CO)COC(=O)CCCCCCCCCCCCCCC [DG 16:0_20:5_0:0] (ion (formula + adduct): [C39H66O5+NH4] 1+)
30 | 279.1 |  |  | CCCCCCCCCCCCCCCCCCCCCC(=O)O[C@@H](CO)COC(=O)CCCCCCCCCCCCCCC [DG 16:0_22:0_0:0] (ion (formula + adduct): [C41H80O5+NH4] 1+)
31 | 276.3 |  |  | CCCCCCCC/C=C\CCCCCCCCCCCC(=O)O[C@@H](CO)COC(=O)CCCCCCCCCCCCCCC [DG 16:0_22:1_0:0] (ion (formula + adduct): [C41H78O5+NH4] 1+)
32 | 271.2 |  | 270.8 | CCCCC/C=C\C/C=C\C/C=C\C/C=C\CCCCCC(=O)O[C@@H](CO)COC(=O)CCCCCCCCCCCCCCC [DG 16:0_22:4_0:0] (ion (formula + adduct): [C41H72O5+NH4] 1+)
33 | 266.6 |  | 270 | CC/C=C\C/C=C\C/C=C\C/C=C\C/C=C\CCCCCC(=O)O[C@@H](CO)COC(=O)CCCCCCCCCCCCCCC [DG 16:0_22:5_0:0] (ion (formula + adduct): [C41H70O5+NH4] 1+)
34 |  |  | 267.7 | CC/C=C\C/C=C\C/C=C\C/C=C\C/C=C\C/C=C\CCC(=O)O[C@@H](CO)COC(=O)CCCCCCCCCCCCCCC [DG 16:0_22:6_0:0] (ion (formula + adduct): [C41H68O5+NH4] 1+)
35 | 249 |  |  | CCCCCC/C=C\CCCCCCCC(=O)OC[C@H](CO)OC(=O)CCCCCCC/C=C\CCCCCC [DG 16:1_16:1_0:0] (ion (formula + adduct): [C35H64O5+NH4] 1+)
36 | 258.1 |  |  | CCCCCC/C=C\CCCCCCCC(=O)OC[C@H](CO)OC(=O)CCCCCCC/C=C\CCCCCCCC [DG 16:1_18:1_0:0] (ion (formula + adduct): [C37H68O5+H] 1+)
